The test system of data set [1] is VZV TK− (07-1). The note with it: read-out: EC50 (HEL) VZV TK− (07-1); HEL cells; ref Krecmerova et al. (Ref. [7]); cited from earlier work.
In data set [2] the test system is HCMV (AD-169). The note with it: read-out: EC50 (HEL) HCMV (AD-169); HEL cells; ref Krecmerova et al. (Ref. [7]); cited from earlier work.
The test system of data set [3] is herpesviruses (HSV, VZV, HCMV). Kind of data set: Anti-herpesvirus activity overall. The note with it: HEL cells. Type of data set: cell-based.
Data set [4] relates to human embryonic lung (HEL) cells. To be noted: read-out: Cytotoxicity CC50, ref Krecmerova et al. (Ref. [7]); cited from earlier work.
Data set [5] has as its system Vaccinia virus. To be noted: read-out: EC50 (HEL) Vaccinia virus; HEL cells; ref Krecmerova et al. (Ref. [7]); cited from earlier work.
In data set [6] the test system is HSV-1 (Kos). The note with it: read-out: EC50 (HEL) HSV-1 (Kos); HEL cells; ref Krecmerova et al. (Ref. [7]); cited from earlier work.
Data set [7] relates to human embryonic lung (HEL) cells. The note with it: ref Krecmerova et al. (Ref. [7]); cited from earlier work.
In data set [8] the test system is HCMV (Davis). The note with it: read-out: EC50 (HEL) HCMV (Davis); HEL cells; ref Krecmerova et al. (Ref. [7]); cited from earlier work.
Data set [9] concerns VZV TK+ (Oka). To be noted: read-out: EC50 (HEL) VZV TK+ (Oka); HEL cells; ref Krecmerova et al. (Ref. [7]); cited from earlier work.
Data set [10] deals with HSV-2 (G). The note with it: read-out: EC50 (HEL) HSV-2 (G); HEL cells; ref Krecmerova et al. (Ref. [7]); cited from earlier work.

pEC50: −log10 of the molar value.

For `Nc1ncn(CCOCP(=O)(O)O)c(=O)n1` [Compound 6, 1-[2-(phosphonomethoxy)ethyl]-5-azacytosine], the pEC50 in [1] is 4.40; in data set [2], 3.71; in data set [5], below 3.40; in [6], 4.41; in data set [8] it was 3.83; in data set [9] it was 4.00. The pEC50 in data set [10] is 3.99. For the same molecule, the “Anti-herpesvirus activity (in words)” value in [3] is on record as “marginal anti-herpesvirus activity”. For the same molecule, the 50% cytotoxic concentration (CC50) in data set [4] is above 200 µM. Besides, the “Cytotoxicity MCC” value in data set [7] is above 398 µM.

By pEC50 is commonly meant the EC50 on a negative log10 scale, so that one unit is a factor of ten. As usually defined, the CC50 is the concentration that lowers cell viability or growth by half.

The values are drawn from PMC7126465 (Bioorganic & Medicinal Chemistry, 2017).
